# Entries after “also recorded” stand apart in the source; their conditions may differ. Read-outs that look alike come from different tables or passages of the source.
# Assays:
# promoter for human IL-2 = assay: IL-2 reporter gene assay; type: cell-based; conditions: read-out: IC50 (concentration required for 50% inhibition)
# From the text: The reporter gene is any gene expressing a readily observable product, e.g., an enzyme marker such as β-galactosidase or luciferase, or any other suitable enzyme marker. For example, where the enzyme marker is β-galactosidase, the reporter gene is, e.g., a bacterial lacZ gene; where the enzyme marker is luciferase, the gene is, e.g., a Phorinus luciferase gene. […] The promoter gene is a promoter gene for a cytokine or protein for which transcription is stimulated or suppressed by the drug to be monitored.
# Blood samples from the patient are diluted, their effect on gene expression in the above described system is measured, and the assay is standardized using known concentrations of the immunosuppressive material.
# [1] = system: mixed-lymphocyte reaction; assay: mixed-lymphocyte reaction (MLR) assay; type: cell-based, mouse
# From the text: In addition to the IL-2 reporter gene assay, the concentration of immunosuppressants, such as pimecrolimus and FK506 can be measured by the mixed-lymphocyte reaction (see Meo, “The MLR in the Mouse”, Immunological Methods, Lefkovits and Pernis, Eds., p. 227 Academic Press, NY).
# [2] = human, in vivo
# Method: In this study pimecrolimus was rapidly absorbed with a median tmax across all the dose groups and collection days of between 0.8 and 2.0 hours. […] There was no effect of age or weight on the apparent clearance of pimecrolimus.
# [3] = system: SCID mice reconstituted with CD4+CD45RBHi T cells (SCID-IBD); assay: SCID-IBD mouse model, treatment started the day after T cell transfer; type: in vivo
# From the text: It is known that the transfer of syngeneic, naive T lymphocytes (CD4^+CD45RB^Hi) into SCID mice results in a severe colitis and wasting disease, SCID-IBD.
# In this study, SCID mice reconstituted with CD4^+CD45RB^Hi T lymphocytes were used. These mice are known to develop chronic colitis with characteristics similar to human IBD, as described above.
# […] […] BW was monitored throughout. On termination, blood was withdrawn, spleen, mesenteric lymph nodes (MLN) and colon were removed. Serum haptoglobin levels were measured (ELISA), colitis was assessed histologically and lymphocyte and neutrophil numbers were calculated from FACS analysis of blood, spleen and MLN cell suspensions.
# In order to determine the efficacy of ASM981 treatment in preventing intestinal mucosal damage in SCID-IBD mice, a histological examination of the colon sections was performed according to defined morphological parameters. All colon sections were assessed according to a scheme awarding degrees of severity governed by the extent of cell infiltration and inflammation with a score of 8 being the maximum.
# [4] = system: SCID mice reconstituted with CD4+CD45RBHi T cells (SCID-IBD); assay: SCID-IBD mouse model, delayed treatment of established IBD; type: in vivo; conditions: 100 mg/kg/day p.o. started after 7, 14 or 21 days, until 41 days
# Method: In order to determine if pimecrolimus is also effective once IBD is established, SCID mice were treated with pimecrolimus at a dose level of 100 mg/kg/day at days 7, 14 or 21 following the transfer of the disease causing CD4^+ T cells. The study was terminated after 41 days, i.e., the mice were treated for 33, 26 and 19 days, respectively. The results are shown in FIGS. 10-12, and described below.
# SCID mice were reconstituted with 2×10^5 CD4^+CD45RB^Hi T cells and treatment with pimecrolimus (100 mg/kg/day p.o.) started after 7, 14 or 21 days and continued daily until 41 days. Treatment with the placebo formulation started after 7 days. BW was monitored once a week for the first 2 weeks and then twice weekly. Data are expressed as mean percent BW relative to the weight on day 0±s.e.m. for n=9 (PBS), n=8 (ASM(7d) & ASM(21d) and n=7 (ASM(14d) and placebo) mice per group. PBS refers to the non-transferred mice which have been pooled with regard to percent BW values since no treatment dependent changes were found. p<0.01 relative to the placebo-treated group at 41 days.
# SCID mice were reconstituted with 2×10^5 CD4^+CD45RB^Hi T cells and treatment with pimecrolimus (100 mg/kg/day p.o.) started after 7,14 or 21 days and continued daily until 41 days. […] Data are expressed as mean haptoglobin (mg/mL)±s.e.m. for n=9 (PBS), n=8 (ASM(7d)) and n=7 (ASM(14d), ASM(21d) and placebo) mice per group. […]
# [5] = system: allergic contact dermatitis (ACD); assay: Rat model of allergic contact dermatitis (ACD); type: in vivo; conditions: oral, same doses
# [6] = system: systemic immune responses; assay: Models of systemic immunosuppression (graft-versus-host reaction, antibody formation to sheep red blood cells, kidney transplantation); type: in vivo, rat
# From the text: Pimecrolimus (also called ASM981 and ELIDEL®) is an ascomycin macrolactam-derivative with anti-inflammatory properties, chemical name is 33-epichloro-33-desoxy-ascomycin. Pimecrolimus is an ascomycin macrolactam-derivative developed originally for topical and oral treatment of inflammatory skin diseases such as atopic dermatitis and psoriasis. Pimecrolimus binds to macrophilin-12 and inhibits the Ca-dependent phosphatase calcineurin. As a consequence, it inhibits T cell activation and blocks the transcription and release of both Th1 and Th2 inflammatory cytokines. […] Tachyphylaxis has not been observed.
# in vivo = conditions: rat, po, 25 mg/kg
# Method: In another study designed to explore the differences between pimecrolimus and FK506 and to determine whether these differences might be associated with a different tissue distribution, the exposure to pimecrolimus and FK506 in various organs after oral administration were measured. Animals received 2 oral doses of 25 mg/kg in an interval of 2 hours. […] Pimecrolimus was found consistently to have a higher skin/blood concentration ratio than FK506 (2 hours: 7.3 vs. 2.8; 6 hours: 13 vs. […]; 24 hours: 36 vs. 6.0). The AUC0-24h in skin calculated for pimecrolimus was twice as high as with FK506.
# These distribution characteristics are relevant not only for oral, but also for topical application, as the compound enters systemic circulation after permeation through the skin.
# [7] = system: allergen induced airway eosinophilia; assay: Mouse model of asthma: aeroallergen induced eosinophil influx into the lungs of sensitized mice; type: in vivo
# [8] = system: antigen-induced pulmonary eosinophilia; assay: Rat model of asthma: antigen-induced pulmonary eosinophilia in actively sensitized Brown Norway Rats; type: in vivo; conditions: single and multiple challenge models
# From the text: Another study looked at the effects of oral administration of pimecrolimus on antigen-induced pulmonary eosinophilia in actively sensitized Brown Norway Rats.
# CYP3A enzyme subfamily = assay: Elimination / metabolism of pimecrolimus; type: in vitro ADME
# [9] = system: allergic contact dermatitis (ACD); assay: Skin inflammation and lymph nodes during sensitization and elicitation phase of ACD; type: in vivo
# psoriatic patients = conditions: human, in vivo
# Method: A clinical study was initiated with an oral formulation of pimecrolimus to treat psoriatic patients. Pimecrolimus was evaluated as treatment for psoriasis using an oral dose of 60 mg (30 mg b.i.d) during a 4-week clinical study. The cohort included 10 patients; 8 received the treatment and 2 received a placebo.
# The dose used in the study was 60 mg/day, given as 30 mg b.i.d. To make this dose the 20 mg tablets were cut in half using a special cutter (Tablettenteiler NR.96) so as to obtain 30 mg of pimecrolimus or a matched amount of placebo.
# In this study the relationship of trough concentration to clinical results was also determined.
# [10] = system: gene expression in blood cells; conditions: days 13 or 14 vs baseline, 30 mg b.i.d. oral
# Method: Pimecrolimus was evaluated as treatment for psoriasis using an oral dose of 60 mg (30 mg b.i.d) during a 4-week clinical study. The cohort included 10 patients; 8 received the treatment and 2 received a placebo. Blood samples were collected before the first administration to establish the gene expression baseline and on days 13 or 14 after treatment with pimecrolimus or placebo and submitted to gene expression analysis in order to gain insights into the mechanisms of action of the compound.
# The RNA from blood samples drawn from each patient in the study was extracted and tested on individual DNA microarrays, thus allowing, for each patient, a comparison of gene expression before and after pimecrolimus treatment. […] Genes that were consistently modulated were sorted in functional categories.
# [11] = in vivo, po
# IBD patients = conditions: cited from earlier work
compound,measurement,setting,value
33-epichloro-33-desoxy-ascomycin [Pimecrolimus],IC50,promoter for human IL-2,1.5 nM
same,IC50,[1],9 nM
same,time to steady-state,[2],6 to 13 days
same,dose dependence of Cmax and AUCτ,[2]; po,dose proportional
same,effect of age or weight on the apparent clearance,[2]; po,no effect
same,trough concentration associated with a significant clinical response in the target epithelial tissue,[2]; po,≥ 7 ng/mL
same,"AUCτ,b Mean ± SD","[2]; po, 10 mg",102.8 ± 41 .4 ng · h/mL
same,"Cmax,b Mean ± SD","[2]; po, 20 mg",42 4 ± 10.8 ng/mL
same,"colitis, histological examination of colon sections",[3]; 30 mg/kg/day p.o.,moderate to severe inflammation
same,"colitis, histological examination of colon sections",[3]; 60 mg/kg/day p.o.,moderate
same,"inhibition of lymphocyte numbers in blood, spleen and MLN",[3]; 100 mg/kg/day,not observed
same,mice with macroscopically normal feces,[3]; 100 mg/kg/day group,Approximately half of the mice
same,"colitis, histological examination of colon sections",[3]; 100 mg/kg/day p.o.,only mildly inflamed colons
same,neutrophil infiltration into the colon (myeloperoxidase activity in colon homogenates),[3]; 100 mg/kg/day p.o.,completely blocked
same,loss of BW associated with the disease,"[3]; oral, 4 weeks, dose range 30-100 mg/kg/day, dose-responsive",prevented the severe loss of BW
same,diarrhea,"[3]; p.o., 30-100 mg/kg/day",improved in a dose-dependent fashion
same,severe colitis relative to placebo-treated SCID-IBD mice,"[3]; p.o., 30-100 mg/kg/day",significantly inhibited
same,blood and spleen neutrophilia associated with established/ongoing colitis,[4],strongly inhibits
same,loss of BW associated with established/ongoing mild to severe colitis,[4],highly-effective in reversing the loss of BW
same,efficacy compared to FK506,[5],superior
same,therapeutic window of anti-inflammatory activity in the skin versus systemic immunosuppression as compared to FK506,"[6]; rats, q.d., s.c.",clearly increased therapeutic window
same,systemic immunosuppressive effects compared to CyA or FK506,[6]; transplantation and vaccination models,only a low potential to impair systemic immune responses; also recorded: minimal general systemic immunosuppressive effects
same,AUC0-24h in skin relative to FK506,in vivo,twice as high
same,"exposure in all other tissues, including blood, lymph nodes and kidney",in vivo,lower than to FK506
same,allergen induced airway eosinophilia and IL-4 cytokine production,"[7]; mouse, single and multiple challenge models",inhibit
same,eosinophil count in the lung and eosinophil peroxidase activity,"[7]; sensitized mice, oral administration",able to reduce
same,allergen induced airway eosinophilia and IL-4 cytokine production,[8],inhibit
same,route of elimination,CYP3A enzyme subfamily,predominantly via metabolism involving an oxidative mechanism catalyzed by the CYP3A enzyme subfamily
same,primary site of action,[9],primarily interferes with inflammation in the skin
same,"change in physical examination, blood pressure, electrocardiogram, safety laboratory tests or renal function",psoriatic patients,no clinically significant change was observed
same,serious adverse side effects,psoriatic patients,no serious adverse side effects in any patient
same,expression of Kallistatin,[10],up-regulated
same,"expression of asthma related genes (RANTES, GALECTIN-3, Thromboxane A2 receptor, Glutathione peroxidase)",[10],specifically and significantly down-regulated
same,"expression of genes necessary for chemotaxis and cellular migration (LFA-1, P-selectin ligand, L-selectin)",[10],dramatic down-regulation
same,"expression of genes of the Macrolactam target pathway (macrophilin 12), cellular activation and proliferation (Histone2, Histone 3.3, cyclin D2)",[10],down-regulate
same,"expression of inflammatory mediators (Leukotriene A4 hydrolase, prostaglandin endoperoxide synthase)",[10],strongly down regulate
same,drug accumulation,[11],does not lead to drug accumulation in the blood or tissues
"C[C@@H]1C[C@H]2[C@@H]3CCC4=CC(=O)C=C[C@]4(C)[C@@]3(F)[C@@H](O)C[C@]2(C)[C@@]1(O)C(=O)CO [dexamethasone, Dexamethasone, reference compound]",BW at the doses needed to inhibit colitis,[3]; 3 and 10 mg/kg/day p.o.,steroid-related accelerated loss in BW
"O=C(O)c1cc(/N=N/c2ccc(S(=O)(=O)Nc3ccccn3)cc2)ccc1O [Sulphasalazine, reference compound]",healthy control subjects reporting side effects related to the sulphapyridine moiety,IBD patients; healthy control subjects,≤ 80%
same,patients reporting side effects related to the sulphapyridine moiety,IBD patients; patients,up to 45%
Infliximab: chimeric anti-TNF alpha antibody,patients in whom remission is achieved,"IBD patients; CD patients, infusion",up to 60%
same,patients who develop side effects,"IBD patients; e.g., nausea, upper respiratory tract infections, abdominal pain and headache",up to 60%
same,patient population which develops human anti-chimeric antibodies,"IBD patients; human, in vivo",13-30%
same,patients who suffered serious infusion reactions,"IBD patients; human, in vivo",Sixteen percent
"Cn1cnc([N+](=O)[O-])c1Sc1ncnc2nc[nH]c12 [AZA, Azathioprine, reference compound]",patients who get pancreatitis or more severe allergic reactions,"IBD patients; human, in vivo",3-15%
"C=CC[C@@H]1/C=C(\C)C[C@H](C)C[C@H](OC)[C@H]2O[C@@](O)(C(=O)C(=O)N3CCCC[C@H]3C(=O)O[C@H](/C(C)=C/[C@@H]3CC[C@@H](O)[C@H](OC)C3)[C@H](C)[C@@H](O)CC1=O)[C@H](C)C[C@@H]2OC [FK506, tacrolimus, reference compound]",IC50,[1]; Mus musculus,1 nM
same,Kp at 2 h,in vivo,2.8
same,Kp at 24 h,in vivo,6
same,skin/blood concentration ratio,in vivo; 6 h,1.6
same,primary site of action,[9],acts primarily on the subcutaneous lymphoid tissue

# Source: patent US20030119797A1, “Methods for selective immunomodulation” (priority 2001, published 2003)
